Test results taken from PubChem BioAssay AID651978 (The Scripps Research Institute Molecular Screening Center, 2013).
Calls of active or inactive are those of the source. The rule behind the calls is not given here.

Legend:
Test in all cases: PubChem AID 651978
FASN = details: BW5147 mouse T-cell proteome, ABPP-SILAC LC-MS ratio, at 1 µM, active compounds read low
LIPA = details: BW5147 mouse T-cell proteome, ABPP-SILAC LC-MS ratio, at 1 µM, active compounds read low
ACOT1 = details: BW5147 mouse T-cell proteome, ABPP-SILAC LC-MS ratio, at 1 µM, active compounds read low
PNPLA7 = details: BW5147 mouse T-cell proteome, ABPP-SILAC LC-MS ratio, at 1 µM, active compounds read low
[1] = target: Palmitoyl-protein thioesterase ABHD10, mitochondrial (Mus musculus) (UniProt Q6PE15); details: BW5147 mouse T-cell proteome, ABPP-SILAC LC-MS ratio, at 1 µM, active compounds read low
Sequence of Palmitoyl-protein thioesterase ABHD10, mitochondrial (Mus musculus) (Q6PE15 whole entry, looked up): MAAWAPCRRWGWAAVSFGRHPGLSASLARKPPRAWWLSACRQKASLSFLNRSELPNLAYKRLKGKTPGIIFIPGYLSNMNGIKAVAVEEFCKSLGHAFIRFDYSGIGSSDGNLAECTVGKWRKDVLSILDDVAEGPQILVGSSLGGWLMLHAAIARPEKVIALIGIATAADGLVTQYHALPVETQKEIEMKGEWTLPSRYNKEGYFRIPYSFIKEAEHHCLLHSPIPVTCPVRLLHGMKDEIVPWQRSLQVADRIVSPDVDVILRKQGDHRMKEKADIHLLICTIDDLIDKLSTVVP

ABHD12 = details: BW5147 mouse T-cell proteome, ABPP-SILAC LC-MS ratio, at 1 µM, active compounds read low
PREPL = details: BW5147 mouse T-cell proteome, ABPP-SILAC LC-MS ratio, at 1 µM, active compounds read low
[2] = target: Prolyl endopeptidase (Mus musculus) (UniProt Q9QUR6); details: BW5147 mouse T-cell proteome, ABPP-SILAC LC-MS ratio; PREP; at 1 µM; active compounds read low
Sequence of Prolyl endopeptidase (Mus musculus) (Q9QUR6 whole entry, looked up): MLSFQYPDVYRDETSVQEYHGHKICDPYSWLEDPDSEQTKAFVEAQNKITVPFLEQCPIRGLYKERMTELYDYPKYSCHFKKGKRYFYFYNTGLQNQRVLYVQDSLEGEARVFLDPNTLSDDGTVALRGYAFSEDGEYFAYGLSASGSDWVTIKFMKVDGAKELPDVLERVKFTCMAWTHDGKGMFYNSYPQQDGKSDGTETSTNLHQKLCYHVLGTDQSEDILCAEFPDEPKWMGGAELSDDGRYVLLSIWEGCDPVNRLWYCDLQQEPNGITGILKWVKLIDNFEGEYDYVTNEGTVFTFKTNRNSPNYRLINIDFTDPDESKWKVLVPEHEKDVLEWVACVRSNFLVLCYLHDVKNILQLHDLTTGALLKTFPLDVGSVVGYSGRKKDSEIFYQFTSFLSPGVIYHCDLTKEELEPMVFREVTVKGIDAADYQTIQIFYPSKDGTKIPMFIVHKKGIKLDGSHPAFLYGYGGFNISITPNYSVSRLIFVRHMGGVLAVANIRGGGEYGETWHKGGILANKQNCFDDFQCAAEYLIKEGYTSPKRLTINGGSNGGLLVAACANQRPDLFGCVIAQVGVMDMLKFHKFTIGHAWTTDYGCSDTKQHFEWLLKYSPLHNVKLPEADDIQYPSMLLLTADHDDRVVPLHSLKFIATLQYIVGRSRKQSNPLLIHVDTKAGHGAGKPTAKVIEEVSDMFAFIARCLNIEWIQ

ESD = details: BW5147 mouse T-cell proteome, ABPP-SILAC LC-MS ratio, at 1 µM, active compounds read low
PRCP = details: BW5147 mouse T-cell proteome, ABPP-SILAC LC-MS ratio, at 1 µM, active compounds read low
[3] = target: Platelet-activating factor acetylhydrolase 2, cytoplasmic (Mus musculus) (UniProt Q8VDG7); details: BW5147 mouse T-cell proteome, ABPP-SILAC LC-MS ratio; PAFAH2; at 1 µM; active compounds read low
Sequence of Platelet-activating factor acetylhydrolase 2, cytoplasmic (Mus musculus) (Q8VDG7 whole entry, looked up): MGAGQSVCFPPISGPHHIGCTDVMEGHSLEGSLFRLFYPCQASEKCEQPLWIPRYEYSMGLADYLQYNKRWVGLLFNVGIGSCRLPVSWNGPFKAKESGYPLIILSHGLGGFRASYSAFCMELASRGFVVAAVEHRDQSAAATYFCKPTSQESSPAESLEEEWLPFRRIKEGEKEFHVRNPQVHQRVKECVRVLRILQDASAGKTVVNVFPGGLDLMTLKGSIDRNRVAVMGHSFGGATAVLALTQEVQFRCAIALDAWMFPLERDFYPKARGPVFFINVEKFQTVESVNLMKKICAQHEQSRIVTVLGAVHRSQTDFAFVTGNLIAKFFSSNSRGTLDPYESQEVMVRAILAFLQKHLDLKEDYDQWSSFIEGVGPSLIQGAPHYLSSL

[4] = target: Monoacylglycerol lipase ABHD6 (Mus musculus) (UniProt Q8R2Y0); details: BW5147 mouse T-cell proteome, ABPP-SILAC LC-MS ratio, at 1 µM, active compounds read low
Sequence of Monoacylglycerol lipase ABHD6 (Mus musculus) (Q8R2Y0 whole entry, looked up): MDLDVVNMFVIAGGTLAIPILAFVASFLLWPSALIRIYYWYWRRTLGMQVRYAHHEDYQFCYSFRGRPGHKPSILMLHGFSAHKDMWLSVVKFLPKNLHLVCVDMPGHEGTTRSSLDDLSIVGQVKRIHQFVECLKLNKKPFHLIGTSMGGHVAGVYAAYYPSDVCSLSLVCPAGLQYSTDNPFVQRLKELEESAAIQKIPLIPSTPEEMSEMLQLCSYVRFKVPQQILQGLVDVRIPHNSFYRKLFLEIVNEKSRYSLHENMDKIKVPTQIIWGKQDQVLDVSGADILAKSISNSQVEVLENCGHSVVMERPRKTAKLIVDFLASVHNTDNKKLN

DPP8 = details: BW5147 mouse T-cell proteome, ABPP-SILAC LC-MS ratio, at 1 µM, active compounds read low
DPP4 = details: BW5147 mouse T-cell proteome, ABPP-SILAC LC-MS ratio, at 1 µM, active compounds read low
FAAH = details: BW5147 mouse T-cell proteome, ABPP-SILAC LC-MS ratio, at 1 µM, active compounds read low
DPP9 = details: BW5147 mouse T-cell proteome, ABPP-SILAC LC-MS ratio, at 1 µM, active compounds read low
APEH = details: BW5147 mouse T-cell proteome, ABPP-SILAC LC-MS ratio, at 1 µM, active compounds read low
LYPLA2 = details: BW5147 mouse T-cell proteome, ABPP-SILAC LC-MS ratio, at 1 µM, active compounds read low
ACOT2 = details: BW5147 mouse T-cell proteome, ABPP-SILAC LC-MS ratio, at 1 µM, active compounds read low
CTSA = details: BW5147 mouse T-cell proteome, ABPP-SILAC LC-MS ratio, at 1 µM, active compounds read low
AADACL1 = details: BW5147 mouse T-cell proteome, ABPP-SILAC LC-MS ratio, at 1 µM, active compounds read low
[5] = target: sn-1-specific diacylglycerol lipase ABHD11 (Mus musculus) (UniProt Q8K4F5); details: BW5147 mouse T-cell proteome, ABPP-SILAC LC-MS ratio, at 1 µM, active compounds read low
Sequence of sn-1-specific diacylglycerol lipase ABHD11 (Mus musculus) (Q8K4F5 whole entry, looked up): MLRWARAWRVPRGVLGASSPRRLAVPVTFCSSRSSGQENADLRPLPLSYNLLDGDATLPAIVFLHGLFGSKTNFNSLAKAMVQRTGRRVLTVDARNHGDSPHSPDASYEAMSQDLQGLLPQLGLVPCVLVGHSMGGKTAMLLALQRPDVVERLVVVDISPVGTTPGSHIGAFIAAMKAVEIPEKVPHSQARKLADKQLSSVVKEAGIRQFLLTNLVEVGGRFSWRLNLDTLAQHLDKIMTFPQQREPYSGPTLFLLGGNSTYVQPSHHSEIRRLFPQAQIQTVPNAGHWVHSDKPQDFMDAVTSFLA

[6] = target: Acyl-protein thioesterase 1 (Mus musculus) (UniProt P97823); details: BW5147 mouse T-cell proteome, ABPP-SILAC LC-MS ratio; LYPLA1; at 1 µM; active compounds read low
Sequence of Acyl-protein thioesterase 1 (Mus musculus) (P97823 whole entry, looked up): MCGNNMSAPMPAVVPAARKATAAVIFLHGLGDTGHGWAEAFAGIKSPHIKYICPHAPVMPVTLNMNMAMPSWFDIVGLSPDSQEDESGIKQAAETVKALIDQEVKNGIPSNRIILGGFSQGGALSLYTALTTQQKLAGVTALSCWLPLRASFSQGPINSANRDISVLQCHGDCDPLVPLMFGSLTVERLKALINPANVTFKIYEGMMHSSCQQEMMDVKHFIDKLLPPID

LACTB = details: BW5147 mouse T-cell proteome, ABPP-SILAC LC-MS ratio, at 1 µM, active compounds read low
PAFAH1B3 = details: BW5147 mouse T-cell proteome, ABPP-SILAC LC-MS ratio, at 1 µM, active compounds read low
PNPLA6 = details: BW5147 mouse T-cell proteome, ABPP-SILAC LC-MS ratio, at 1 µM, active compounds read low
DPP7 = details: BW5147 mouse T-cell proteome, ABPP-SILAC LC-MS ratio, at 1 µM, active compounds read low
SIAE = details: BW5147 mouse T-cell proteome, ABPP-SILAC LC-MS ratio, at 1 µM, active compounds read low
PAFAH1B2 = details: BW5147 mouse T-cell proteome, ABPP-SILAC LC-MS ratio, at 1 µM, active compounds read low

Q: What does the source list for `O=C(CN1CCN(C(=O)c2ccco2)CC1)Nc1cc(C(F)(F)F)ccc1Cl`?
A: light/heavy ratio (remaining activity) (FASN): 1.1 (inactive); light/heavy ratio (remaining activity) (LIPA): 1.12 (inactive); light/heavy ratio (remaining activity) (ACOT1): 1.22 (inactive); light/heavy ratio (remaining activity) (PNPLA7): 1.29 (inactive); light/heavy ratio (remaining activity) [1]: 0.76 (inactive); light/heavy ratio (remaining activity) (ABHD12): 1.29 (inactive); light/heavy ratio (remaining activity) (PREPL): 0.95 (inactive); light/heavy ratio (remaining activity) [2]: 1.08 (inactive); light/heavy ratio (remaining activity) (ESD): 1.05 (inactive); light/heavy ratio (remaining activity) (PRCP): 0.97 (inactive); light/heavy ratio (remaining activity) [3]: 1.3 (inactive); light/heavy ratio (remaining activity) [4]: 1.18 (inactive); light/heavy ratio (remaining activity) (DPP8): 1.08 (inactive); light/heavy ratio (remaining activity) (DPP4): 1.24 (inactive); light/heavy ratio (remaining activity) (FAAH): 1.19 (inactive); light/heavy ratio (remaining activity) (DPP9): 1.06 (inactive); light/heavy ratio (remaining activity) (APEH): 1.06 (inactive); light/heavy ratio (remaining activity) (LYPLA2): 0.84 (inactive); light/heavy ratio (remaining activity) (ACOT2): 1.08 (inactive); light/heavy ratio (remaining activity) (CTSA): 1.11 (inactive); light/heavy ratio (remaining activity) (AADACL1): 1.05 (inactive); light/heavy ratio (remaining activity) [5]: 0.74 (inactive); light/heavy ratio (remaining activity) [6]: 0.03; light/heavy ratio (remaining activity) (LACTB): 1.23 (inactive); light/heavy ratio (remaining activity) (PAFAH1B3): 1.04 (inactive); light/heavy ratio (remaining activity) (PNPLA6): 1.2 (inactive); light/heavy ratio (remaining activity) (DPP7): 0.87 (inactive); light/heavy ratio (remaining activity) (SIAE): 0.98 (inactive); light/heavy ratio (remaining activity) (PAFAH1B2): 1.04 (inactive)
